Tests used:
[1] = Inhibition of porcine brain CK1 delta/epsilon using CK-S as substrate incubated for 30 mins in presence of [gamma-33 ATP] by liquid scintillation counting analysis; design: species or system Sus scrofa
[2] = biological target: Dual specificity tyrosine-phosphorylation-regulated kinase 1A (Rattus norvegicus, UniProt Q63470); test: Inhibition of GST-tagged rat recombinant DYRK1A expressed in Escherichia coli using myelin basic protein as substrate incubated for 30 mins in presence of [gamma-33 ATP] by liquid scintillation counting analysis
[3] = biological target: Glycogen synthase kinase-3 (Sus scrofa, UniProt B2LUN4+I6LNT8); test: Inhibition of porcine brain GSK3alpha/beta using GS-1 as substrate incubated for 10 mins in presence of [gamma-32 ATP] by liquid scintillation counting analysis
[4] = biological target: Dual specificity protein kinase CLK1 (Homo sapiens, UniProt P49759); test: Inhibition of GST-tagged human recombinant CLK1 expressed in Escherichia coli using RS peptide as substrate
[5] = biological target: Cyclin-dependent kinase 5/CDK5 activator 1 (Homo sapiens, UniProt Q00535); test: Inhibition of GST-tagged human recombinant CDK5/p25 expressed in Escherichia coli using histone H1 as substrate incubated for 30 mins in presence of [gamma-33 ATP] by liquid scintillation counting analysis
Sequence of Cyclin-dependent kinase 5/CDK5 activator 1 (Q00535 whole entry): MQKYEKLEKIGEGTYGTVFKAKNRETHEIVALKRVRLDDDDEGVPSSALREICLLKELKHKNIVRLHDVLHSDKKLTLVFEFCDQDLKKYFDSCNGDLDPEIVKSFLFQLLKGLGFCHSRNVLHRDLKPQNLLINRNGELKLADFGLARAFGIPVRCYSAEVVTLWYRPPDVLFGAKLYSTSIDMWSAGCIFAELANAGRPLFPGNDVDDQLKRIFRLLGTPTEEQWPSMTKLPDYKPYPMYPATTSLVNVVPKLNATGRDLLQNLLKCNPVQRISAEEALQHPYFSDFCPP
Sequence of Cyclin-dependent kinase 5/CDK5 activator 1 (Q15078 whole entry, further chain): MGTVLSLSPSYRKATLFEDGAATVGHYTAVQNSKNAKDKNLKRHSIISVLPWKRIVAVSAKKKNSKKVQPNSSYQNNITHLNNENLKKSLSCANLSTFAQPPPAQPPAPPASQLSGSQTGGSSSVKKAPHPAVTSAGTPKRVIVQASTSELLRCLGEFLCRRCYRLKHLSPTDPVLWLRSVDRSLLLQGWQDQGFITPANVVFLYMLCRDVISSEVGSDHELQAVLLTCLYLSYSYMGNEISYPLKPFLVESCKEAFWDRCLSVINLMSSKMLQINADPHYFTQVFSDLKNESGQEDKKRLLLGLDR

Sequence of Dual specificity protein kinase CLK1 (P49759 whole entry): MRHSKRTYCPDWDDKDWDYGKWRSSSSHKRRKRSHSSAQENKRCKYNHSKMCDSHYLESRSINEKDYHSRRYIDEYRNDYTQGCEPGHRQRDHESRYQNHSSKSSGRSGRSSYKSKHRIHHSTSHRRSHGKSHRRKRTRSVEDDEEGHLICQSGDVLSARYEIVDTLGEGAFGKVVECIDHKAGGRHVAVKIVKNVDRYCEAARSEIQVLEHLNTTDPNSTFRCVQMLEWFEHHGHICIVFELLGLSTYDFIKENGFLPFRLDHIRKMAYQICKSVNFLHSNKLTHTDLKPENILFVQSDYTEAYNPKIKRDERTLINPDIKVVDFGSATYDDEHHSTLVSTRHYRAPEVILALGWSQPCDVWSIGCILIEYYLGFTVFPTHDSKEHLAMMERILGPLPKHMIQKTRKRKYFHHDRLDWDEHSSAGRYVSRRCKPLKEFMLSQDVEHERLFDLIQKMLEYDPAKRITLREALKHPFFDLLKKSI

Nc1ncc2cc3cnccc3c(N)c2n1 showed an IC50 [1] of 5.8 µM, an IC50 [2] of 0.028 µM and an IC50 [3] of 9.1 µM. It also gave an IC50 [4] of 0.041 µM and an IC50 [5] of 4.8 µM.

For Nc1ncc2cc3cnccc3cc2n1, the IC50 [1] was 0.8 µM, the IC50 [2] was 0.18 µM and the IC50 [3] was > 10 µM. The IC50 [4] was 0.19 µM and the IC50 [5] was > 10 µM.

Molecule Nc1ncc2cc3cnccc3c([N+](=O)[O-])c2n1 has an IC50 [1] of 0.78 µM, an IC50 [2] of 0.62 µM and an IC50 [3] of 2.2 µM. For the same molecule, the IC50 [4] was 0.069 µM and the IC50 [5] was > 10 µM.

Source: ChEMBL document CHEMBL3822430, “Discovery of pyrido[3,4-g]quinazoline derivatives as CMGC family protein kinase inhibitors: Design, synthesis, inhibitory potency and X-ray co-crystal structure” (Eur J Med Chem, 2016)
